For one compound, Ki results are on record in patent US8188100B2, “Adenosine derivatives as A2A receptor agonists” (Novartis AG, priority 2006, dated 2012).

Broadly, the Ki is a dissociation constant, usually derived from enzyme kinetics or from competition with a known ligand.

The assay addresses adenosine A2A receptor (Homo sapiens, UniProt P29274). As to the kind of experiment: adenosine A2A receptor agonist assay (method of Murphree et al.). Format: binding. The following applies: method described by Murphree et al., Mol Pharmacol, Vol. 61, pp. 455-462 (2002). The source says: Compounds of formula (I) and their pharmaceutically acceptable salts are useful as pharmaceuticals. In particular, they activate the adenosine A2A receptor, i.e., they act as A2A receptor agonists.

Molecules are shown by their SMILES.

Sequence of adenosine A2A receptor (P29274 whole entry): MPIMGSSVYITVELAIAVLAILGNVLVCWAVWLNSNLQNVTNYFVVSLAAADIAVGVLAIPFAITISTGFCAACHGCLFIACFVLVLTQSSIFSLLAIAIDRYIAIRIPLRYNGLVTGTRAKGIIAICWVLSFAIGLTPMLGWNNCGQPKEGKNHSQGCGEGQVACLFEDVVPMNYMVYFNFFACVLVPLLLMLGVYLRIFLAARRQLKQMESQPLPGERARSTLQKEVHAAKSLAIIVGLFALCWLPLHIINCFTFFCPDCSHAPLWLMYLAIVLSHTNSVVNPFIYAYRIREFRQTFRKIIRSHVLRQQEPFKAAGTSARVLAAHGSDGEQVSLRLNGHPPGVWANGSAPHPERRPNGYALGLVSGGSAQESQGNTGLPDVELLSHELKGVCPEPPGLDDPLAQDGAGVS

In turn, `CCC(=O)N[C@H]1C[C@@H](n2cnc3c(NCC(c4ccccc4)c4ccccc4)nc(N4CC[C@@H](Nc5nc(Cl)nc6c5ncn6[C@@H]5C[C@H](NC(=O)CC)[C@@H](O)[C@H]5O)C4)nc32)[C@H](O)[C@@H]1O` [Example 1, {(1S,2R,3S,4R)-4-[2-{(R)-3-[2-Chloro-9-((1R,2S,3R,4S)-2,3-dihydroxy-4-propionylamino-cyclopentyl)-9H-purin-6-ylamino]-pyrrolidin-1-yl}-6-(2,2-diphenyl-ethylamino)-purin-9-yl]-2,3-dihydroxy-cyclopentyl}-propionamide] displayed a Ki of 760 nM.
